Some results are limits rather than exact numbers.

Broadly, the melting point is the temperature of the solid-liquid transition.

`CN1CCN(C2c3ccccc3-c3[nH]c(=O)c(=O)[nH]c32)CC1` (centres undefined): the melting point was in the range of 263 to 265 °C.

Take `Cc1cc(C)c(C(O)c2cccc(-n3ccnc3)c2)c(C)c1` (centres undefined): the melting point fell in the range of 191 to 193 °C. The value for `Cn1ccnc1-c1ccc(OCC(O)CNCCOc2ccc(O)c(C(N)=O)c2)cc1` (centres undefined) was 108 to 112 °C; that for `CCC1COC(=NO)C(=O)N1C` (centres undefined) was 168 to 170 °C.

In turn, `CC1(C(O)(Cc2ccccc2Cl)Cn2cncn2)CCCC1` (centres undefined) came in with a melting point of 110 °C. Molecule `COc1cccc(Cc2cc(OC)ccc2O)c1` registered a melting point of 116 to 118 °C. For `CC(=O)OC(Cn1cncn1)(CC(Cl)(Cl)Cl)c1ccc(Cl)cc1` (centres undefined) the value was 112 to 114 °C. For `C=CC1C2OCC(O2)C(OCc2ccccc2)C1O` (centres undefined) the value was 88 to 91 °C; for `Clc1ccccc1-c1nc(-c2ccccc2)c(-c2ccccc2)[nH]1`, 196 to 197 °C. For `Cn1nc(Oc2ccc(Cl)c(O)c2)c(Cl)c1C(F)(F)F` the value was 106 to 108 °C; for `O=C1NCCCCC1c1cccc(O)c1` (centres undefined), 175 to 178 °C; for `O=C(c1ccccc1)c1cc(Cl)cc2c1S(=O)(=O)CC2C(=O)O` (centres undefined), 158 to 161 °C.

Regarding `O=C(O)Cc1cn(CCc2ccc(OCc3ccccc3)cc2)nc1-c1ccccc1`, the melting point is 199 to 200 °C.

Take `OC1(Cc2ccccc2)CCN(CCC#Cc2ccccc2)CC1`: the melting point fell in the range of 80 to 82 °C.

The molecule `NS(=O)(=O)c1ccc2c(c1)S(=O)(=O)NC1CCCN21` (centres undefined) yielded a melting point of 260 to 262 °C.

`CCOC(=O)CCCCc1cccc(-c2nc(=O)c3ccccc3s2)n1` registered a melting point of 87 to 88 °C. For `NS(=O)(=O)c1ccccc1C1=CCCC1` the value was 112 to 113 °C. For `CC(C)(C)c1cc(N(C(=O)CCC(=O)O)c2ccccc2)cc(C(C)(C)C)c1O` the value was 205 to 208 °C.

In turn, `C=C(CCl)C(C(=O)OC(c1ccccc1)c1ccccc1)N1C(=O)C2N=C(Cc3ccccc3)OC21` (centres undefined) yielded a melting point of 82 to 83 °C. For `O=C1CC2CSc3ccccc3C2=NN1c1ccc(Cl)cc1` (centres undefined) the value was 146 to 147 °C; for `CCCCCCCN(CCc1ccc(OC(C)(C)C(=O)O)cc1)C(=O)Nc1ccc(OC)cc1OC`, 95 to 96 °C; for `COCc1cnc2c(NC(=O)c3ccccc3C(F)(F)F)cccc2c1-n1ccnc1`, 126 to 127 °C. The value for `COCC(=O)Nc1cc(C(N)=O)cc(NC(=O)COC)c1Cl` was 208 to 209 °C; that for `O=CN1CCC(=C2c3ccc(Cl)cc3CCc3cccnc32)CC1` was 147 to 149 °C; that for `CC(=O)CC(=O)Nc1nnc(C(C)(C)C)s1` was 166 to 168 °C. For `C/C(=C(\C#N)C(N)=S)N1CCCOCC1` the value was 151 to 156 °C; for `CC(C)(C)OC(=O)[C@H]1C[C@H](C(=O)O)[C@@H](c2ccccc2)N1C(=O)CNC(=O)Nc1ccc(Cl)cc1` (racemic), 248 °C. Molecule `O=C(c1c[nH]c2c1ccc1c3ccccc3[nH]c12)C(F)(F)F` registered a melting point above 295 °C. The value for `COc1ccc2c(c1)S(=O)(=O)N=CN2CCCl` was 126 to 130 °C; that for `O=C(O)c1ccc(-c2nc(-c3ccc(Cl)cc3)no2)c([N+](=O)[O-])c1` was 257 to 258 °C. The value for `O=C1NC(=O)C(=Cc2ccc(OCCN3CCN(c4ccccn4)CC3)cc2)S1` was 158 to 160 °C; that for `CC(C(N)=S)(c1ccccc1)c1ccccn1` (centres undefined) was 186 to 188 °C; that for `Cc1ccc([N+](=O)[O-])c(C)c1C1OCCO1` was 69 to 71 °C. The value for `Cc1cc(-c2nc3cccnn3c2-c2ccnc(NC(=O)NC3CCCCC3)c2)ccc1F` was 229 to 230 °C; that for `CC(=O)Nc1ccccc1N1CCOCC1` was 140 to 141 °C; that for `COC(=O)c1cc(-c2ncnc(C(F)F)c2Cl)c(F)cc1Cl` was 100 to 101 °C. `O=C(CCc1cccnc1)NCCCCC1CCN(P(=O)(c2ccccc2)c2ccccc2)CC1` came in with a melting point of 134 to 135 °C. The molecule `C#CCN(c1ccc(C(=O)NC(CCC(=O)NC(CCC(=O)O)C(=O)O)C(=O)O)cc1)C1CCc2cc3nc(CO)[nH]c(=O)c3cc21` (centres undefined) returned a melting point of 172 °C. For `Cc1ccc(S(=O)(=O)Nc2ccc(C(=O)CN3CCN(c4ccncc4)CC3)cc2)cc1` the value was 168 to 170 °C.

On to `COC(=O)c1ccc(C#CCc2cccc3c2SCCC3(C)C)cc1`, for which the melting point stood at 92 °C.

Turning to `Cc1c(C(F)(F)C(F)(F)F)ncn1-c1ncc(C(F)(F)F)cc1Cl`, the melting point came to 71 °C.

`COC(=O)Cc1cccc(C(=O)c2ccccc2)c1N` displayed a melting point of 52 to 54 °C. For `COc1ccnc(CCc2nc3cc(-c4cccs4)cnc3[nH]2)c1` the value was 132 to 133 °C; for `O=C1N(Cc2cnc(N3CCCCC3)s2)c2ccccc2C12COc1cc3c(cc12)OCO3` (centres undefined), 195 to 197 °C; for `COC(=O)[C@@H]1CCCC[C@H]1C[C@@H](O)[C@H](Cc1ccccc1)NC(=O)OC(C)(C)C`, 127 to 128 °C. The value for `CCN1c2ncccc2C(=NOC)Nc2c(C)cc(C)nc21` was 164 to 166 °C. For `CC1(C)C(=O)Nc2cc3[nH]c(C4=CCCC4)nc3cc21` the value was 233 to 235 °C; for `Cc1c(SCCCCl)ccnc1CSc1nc2cc(F)ccc2[nH]1`, 188 to 191 °C. As for `CC(=O)N(C(=O)C(C)(C)C)C1CC(C)(C)N(OC(=O)C(C)(C)C)C(C)(C)C1`, the melting point lay within 169 to 173 °C. For `N#Cc1cn2c(nc1=O)CCCCC2` the value was 205 to 206 °C; for `CC(=O)OCC(C)(CC(C)(C)C)C(=O)O` (centres undefined), 89.5 to 90.5 °C; for `O=C(O)c1cc2cc(-c3ccccc3)ccc2o1`, 220 to 221 °C. For `O=C(O)C1c2ccccc2COc2ccccc21` (centres undefined) the value was 200 to 201 °C; for `COc1cccc(NC(=O)NCc2cccc3c2CN(C2CCC(=O)NC2=O)C3=O)c1` (centres undefined), 340 to 342 °C. The value for `O=C(c1ccc(Cl)cc1)c1ccccc1N=C=S` was 162 to 166 °C. Turning to `Cc1cc(C)cc(NC(=O)[C@@H](C)NC(=O)c2cc([N+](=O)[O-])c(Cl)c([N+](=O)[O-])c2)c1`, the melting point is 202 to 204 °C. As for `CN(C)CCC1=Cc2ccc(OCc3ccc(-c4ccccc4)cc3)cc2CC1`, the melting point was in the range of 123 to 126 °C. The value for `O=[N+]([O-])c1ccc2c(c1)C(c1ccccc1Cl)=NCc1nc(CO)cn1-2` was 173 to 174 °C; that for `COC(=O)c1cc(-c2ccc(S(C)(=O)=O)cc2)n(-c2ccc(Cl)cc2)n1` was 169 to 171 °C.

In the case of `CCOC(=O)/C=C/c1nc(COc2ccc(COc3nn(-c4ccccc4)cc3/C=C\c3csc(CC)n3)cc2OC)c(C)o1`, the melting point lay within 95 to 96 °C. The value for `NS(=O)(=O)c1cc2[nH]c(CCl)nc2cc1Cl` was 296 to 301 °C. Turning to `CC(C)(CO)c1cc(OS(C)(=O)=O)ccc1O`, the melting point was 122 to 124 °C.

In turn, `COc1cc(OC)nc(Oc2cccnc2C=O)n1` displayed a melting point of 76 °C. For `CCCCc1nc2cccc(C(=O)OC)c2n1Cc1ccc2nc(-c3ccccc3-c3nnn[nH]3)n(C)c(=O)c2c1` the value was 240 to 242 °C; for `CC(=O)NC[C@@H]1CCCc2cc(S(=O)(=O)c3ccccc3)cc(F)c21`, 152 to 154 °C. For `Cc1c(-c2ccc(C=CC(=O)OC(C)(C)C)cc2)nc2n1CCc1ccccc1C2OC1CCN(C)CC1` (centres undefined) the value was 185 °C; for `CC(C)c1nc(CC(=O)O)n(C)c1Sc1cc(Cl)cc(Cl)c1`, 118 °C; for `Cc1c(N2CCNC(C)C2)c(F)cc2c(=O)c(C(=O)O)cn(C3CC3)c12` (centres undefined), 206 to 208 °C.

Turning to `Cc1c(N(C)C)ccc([N+](=O)[O-])c1CO`, the melting point fell in the range of 42 to 43 °C. Molecule `CCOC(=O)c1ccc(COc2cccc(NC(C)=O)c2C=O)cc1` yielded a melting point of 116 to 119 °C. Molecule `CN1CC(CCCl)Sc2ncccc2C1=S` (centres undefined) returned a melting point of 160 to 162 °C.

`Cc1n[nH]c(C)c1C(=O)Nc1ccccc1` yielded a melting point of 244 to 245 °C. The value for `Cc1cc(-c2cc(CO)c(=O)n(Cc3ccccc3Cl)n2)ccc1F` was 149 to 150 °C; that for `CCc1nc(/C=C/c2cn(-c3ccccc3)nc2OCc2ccc(OCc3nc(-c4ccc(CC(=O)O)cc4)oc3C)c(OC)c2)c(C)s1` was 198 to 199 °C; that for `COc1cc(-n2c(I)nnc2I)ccc1C` was 176 °C. The value for `CC(C)(C)OC(=O)NC(Cc1ccccc1)C(=O)OC(Cc1c[nH]cn1)C(=O)O` (centres undefined) was 130 to 131 °C. In the case of `N#Cc1cc[nH]c1-c1ccc(Cl)cc1`, the melting point lay within 165 to 166 °C.

`CC(=O)c1cc([N+](=O)[O-])c(F)cc1Cl` had a melting point of 66 to 68 °C. The value for `COc1ccc(N2C(=O)N(c3ccc(OC)cc3)C(C)c3cnc(Nc4ccccc4)nc32)cc1` (centres undefined) was 228 to 234 °C. For `CCNC(=O)Oc1ccc(-c2nn(C3CCCC3)c3c(F)cccc23)cc1` the value was 159 to 160 °C. Consider `O=C(NC(Cc1ccc(OCc2ccccc2)cc1)C(=O)O)c1cc2cc(-c3ccc(Cl)cc3)ccc2[nH]c1=O` (centres undefined), for which the melting point lay in the range of 298 to 299 °C. For the molecule `CCN1CCC(C(=O)NO)(S(=O)(=O)c2ccc(OC)cc2)CC1`, the melting point amounted to 85 °C. The value for `CCOC(=O)c1cc(O)n2c(C)nnc2n1` was 201 to 203 °C; that for `O=C(c1ccccc1)c1ccc(OC(=O)C2CC2)cc1` was 81 to 81.5 °C. For `CCCN1CCn2c(=O)[nH]c3cccc(c32)C1C` (centres undefined) the value was 124 °C.

`O=C1CCC(C(=O)Nc2ccccc2C(=O)c2ccccc2)O1` (centres undefined) showed a melting point of 100 to 102 °C. The value for `O=C1c2ccccc2C(=O)N1Cc1ccc(I)cc1Cl` was 140 to 142 °C; that for `O=[N+]([O-])c1ccc(C=CC=CC=CC=Cc2ccc([N+](=O)[O-])cc2)cc1` was 238 to 240 °C.

Molecule `Fc1ccc(C2CCN(CCN(CCN3CCC(c4ccc(F)cc4)CC3)c3ccccc3)CC2)cc1` yielded a melting point of 104 to 105 °C.

Values taken from a melting point compilation (Tetko et al.; mined from patent text by program, amines drawn as free bases though some values may be those of a salt).
